Experimental data taken from the supplement of paper PMC11451515.

What was measured:
Assay in all cases: AUC of viability dose-response curve (% viability x log10 dose units); higher = less sensitive
Conditions in all cases: 48 h
[1] = test system: SEM cells
How it was run: (§1)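 Viability of medium-adapted leukemia cells was measured by CellTiter-Glo One luminescence after 48 h at 37°C with library compounds in DMSO. Doses were 11 threefold steps from 47 μM to 0.79 nM, in 1536-well plates at 500 or 1000 cells/well. Signals were normalised per plate to DMSO and cell-free wells and fitted with a four-parameter log-logistic model on log10 dose. Area under the curve was integrated by trapezoidal rule, with curves exceeding full viability scaled and failed quality-control curves removed.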

[2] = test system: P12-Ichikawa
How it was run: as §1

[3] = test system: NOMO1
How it was run: as §1

[4] = RPMI 5 mM glucose + 10% dialyzed FBS

SMILES | AUC of viability dose-response curve ([1]; HPLM + 10% dialyzed FBS) | AUC of viability dose-response curve ([1]; RPMI 5 mM glucose + 10% FBS) | AUC of viability dose-response curve [1, 4] | AUC of viability dose-response curve ([2]; HPLM + 10% dialyzed FBS) | AUC of viability dose-response curve ([2]; RPMI 5 mM glucose + 10% FBS) | AUC of viability dose-response curve [2, 4] | AUC of viability dose-response curve ([3]; HPLM + 10% dialyzed FBS) | AUC of viability dose-response curve ([3]; RPMI 5 mM glucose + 10% FBS) | AUC of viability dose-response curve [3, 4]
CC(C)NC[C@@H](C(=O)N1CCN(c2ncnc3c2[C@H](C)C[C@H]3O)CC1)c1ccc(Cl)cc1 | 257 | 251 | 249 | 367 | 350 | 362 | 411 | 444 | 419
CC(C)C(=O)Nc1ccc([N+](=O)[O-])c(C(F)(F)F)c1 | 453 | 472 | 461 | 350 | 360 | 378 | 332 | 309 | 320
CN(C)[C@H]\1[C@@H]2C[C@H]3C(=C(O)\[C@]2(O)C(=O)\C(=C1O)C(N)=O)/C(=O)C4=C(O)C=CC=C4[C@@]3(C)O | 426 | 441 | 452 | 470 | 467 | 461 | 468 | 443 | 454
COc1ccc(C(C)=O)c(O)c1 | 439 | 450 | 462 | 422 | 421 | 423 | 350 | 366 | 381
Cn1c(CNc2ccc(C(=N)N)cc2)nc2cc(C(=O)N(CCC(=O)O)c3ccccn3)ccc21 | 424 | 469 | 451 | 448 | 472 | 465 | 441 | 443 | 440
N=C(NCCCCCCNC(=N)NC(=N)Nc1ccc(Cl)cc1)NC(=N)Nc1ccc(Cl)cc1 | 453 | 468 | 420 | 452 | 416 | 419 | 454 | 409 | 440
CC1(C)O[C@@H]2C[C@H]3[C@@H]4CCC5=CC(=O)C=C[C@]5(C)[C@H]4[C@@H](O)C[C@]3(C)[C@]2(C(=O)CO)O1 | 313 | 353 | 318 | 391 | 357 | 331 | 474 | 445 | 454
Cc1c(NC(=O)OC[C@@H]2COCCN2)cn2ncnc(Nc3ccc4c(cnn4Cc4cccc(F)c4)c3)c12 | – | – | – | 422 | 401 | 417 | 379 | 410 | 397
COc1ccc(C2CNC(=O)C2)cc1OC1CCCC1 (stereo not given) | 455 | 453 | 448 | 470 | 472 | 450 | 465 | 460 | 465
C[S+](=O)([O-])N1CCc2c(-c3cnc(N)nc3)nc(N3CCOCC3)nc21 | – | – | – | 457 | 431 | 440 | 418 | 442 | 404
COc1ncc(-c2ccc3nccc(-c4ccnnc4)c3c2)cc1N[S+](=O)([O-])c1ccc(F)cc1F | – | – | – | 354 | 266 | 310 | 303 | 279 | 297
COC1=CC=C(C=C1)C/2=C/OC3=C(C(=CC(=C3)O)O)C2=O | 463 | 436 | 435 | 465 | 441 | 453 | 460 | 474 | 453
CCC(C)(Oc1ccc(C2(c3ccc(OC(C)(CC)C(=O)O)cc3)CCCCC2)cc1)C(=O)O (stereo not given) | 471 | 454 | 472 | 458 | 459 | 426 | 475 | 456 | 469
Cc1ccc([S+](=O)([O-])N[C@@H](Cc2ccccc2)C(=O)CCl)cc1 | 427 | 429 | 420 | – | – | – | 463 | 434 | 450
CC(C)C[C@H](NC(=O)[C@H](CCc1ccccc1)NC(=O)CN1CCOCC1)C(=O)N[C@@H](Cc1ccccc1)C(=O)N[C@@H](CC(C)C)C(=O)[C@@]1(C)CO1 | – | – | – | 162 | 139 | 140 | 177 | 152 | 169
Cc1cc(C(C)(C)C)c(O)c(C)c1CC1=NCCN1 | 360 | 392 | 400 | 454 | 444 | 429 | 432 | 419 | 422
CNc1nccc(-c2cccnc2Oc2cc(C(=O)Nc3cccc(C(F)(F)F)c3)ccc2C)n1 | 466 | 460 | 461 | 467 | 462 | 468 | 458 | 458 | 461
C[C@]12CC[C@@H]3c4ccc(O)cc4C[C@@H](CCCCCCCCC[S+]([O-])CCCC(F)(F)C(F)(F)F)[C@H]3[C@@H]1CC[C@@H]2O (stereo not given in full) | 475 | 411 | 459 | 464 | 462 | 455 | 428 | 470 | 429
Nc1ncnc2c1c(-c1cnc3[nH]ccc3c1)nn2C1CCCC1 | 356 | 306 | 360 | 379 | 343 | 326 | 364 | 388 | 397
CSCC[C@@H](NC(=O)[C@@H](Cc1ccccc1)NC(=O)CNC(=O)CNC(=O)[C@@H](N)Cc1ccc(O)cc1)C(=O)O | 406 | 389 | 409 | – | – | – | – | – | –
Cc1cn([C@@H]2O[C@H](CO)[C@@H](O)[C@@H]2F)c(=O)[nH]c1=O | 467 | 437 | 469 | – | – | – | 456 | 460 | 458
CN(NC(=O)CC(=O)NN(C)C(=S)c1ccccc1)C(=S)c1ccccc1 | – | – | – | 216 | 204 | 217 | 207 | 197 | 178
CCN1\C=C(\C(O)=O)C(=O)C2=CC=C(C)N=C12 | 397 | 425 | 410 | 466 | 426 | 427 | – | – | –
C\C1=C(\C=C(\C#N)C(=O)N1)C2=CC=NC=C2 | 418 | 471 | 460 | – | – | – | 474 | 464 | 468
O=C1c2c(O)ccc(O)c2C(=O)c2c(NCCNCCO)ccc(NCCNCCO)c21 | 251 | 261 | 261 | 286 | 280 | 296 | – | – | –
N[C@H](CSC(c1ccccc1)(c1ccccc1)c1ccccc1)C(=O)O | – | – | – | 472 | 437 | 470 | 470 | 466 | 465
